Patent US8076073B2, “Cholesterol and hedgehog signaling” (The Johns Hopkins University School of Medicine, priority 1998, dated 2011)
“Also recorded” adds a separate entry of the source.

Experiments:
[1] = tested on: pregnant rats; conditions: treatment of pregnant rats; cited from earlier work
[2] = tested on: enzymes of cholesterol biosynthesis; conditions: cited from earlier work
[3] = tested on: 7-dehydrocholesterol reductase; conditions: cited from earlier work
[4] = tested on: mice; conditions: mice with hypomorphic apoB mutation (truncated apoB, reduced cholesterol levels); cited from earlier work
[5] = tested on: COS7 cells; assay: Jervine inhibition of cholesterol biosynthesis, [3H]-mevalonic acid labelling and HPLC sterol analysis; format: cell-based; set-up: radiolabelled cholesterol levels / another radiolabelled sterol, tentatively identified as zymosterol: dose or concentration left out as unconfirmed
Source text: Given the structural similarities of these compounds to cholesterol and the similar teratogenic effects of cholesterol synthesis inhibitors upon the offspring of pregnant rats, a reasonable mechanism to consider for the effects of these plant sterol derivatives was the inhibition of cholesterol biosynthesis. Accordingly, we tested COS7 cultured cells treated with jervine for defects in cholesterol biosynthesis by labelling with [3H]-mevalonic acid and then extracting and analyzing radiolabelled, non-saponifiable lipids. […] Given the similarities in their teratogenic effects, this inhibition seems likely to underlie the teratogenic effects of both the synthetic and natural compounds.
Given the structural similarities of these compounds to cholesterol and the similar teratogenic effects of cholesterol synthesis inhibitors upon the offspring of pregnant rats, a reasonable mechanism to consider for the effects of these plant sterol derivatives was the inhibition of cholesterol biosynthesis. Accordingly, COS7 cultured cells treated with jervine were tested for defects in cholesterol biosynthesis by labelling with [3H]-mevalonic acid and then extracting and analyzing radiolabelled, non-saponifiable lipids. Metabolic labeling and sterol analysis was essentially as described (Popjak et al. J. Biol. Chem. 264: 630-6238.1989; Rilling et al. 1993 Arch. Biochem. Biophys. 301: 210-215.), with minor modifications. Briefly, COS-7 cells were plated at ˜35% confluence into two 60 mm dishes at 37° C. in 4 ml each of Dulbecco's modified Eagle's medium (DMEM) supplemented with 10% fetal bovine serum (FBS). After 24 hr of growth the medium in each dish was replaced with 2 ml fresh medium with 10% FBS; [^3H]-mevalonic acid (NEN #NET 176) brought to a specific activity of 0.8 Ci/mmol in a 1% solution of bovine serum albumin was added to this medium to a final concentration of […]. At this time, one dish received […] of a 4 mg/ml solution of jervine in ethanol (final concentration […] jervine), and the other received […] of ethanol. […]

[6] = tested on: pregnant ewes / newborn lambs; conditions: grazing by pregnant ewes; cited from earlier work
[7] = biological target: T1, Hh protein (Drosophila melanogaster, UniProt Q02936); conditions: relatively low concentrations; nucleophile in the second step; cited from earlier work
T1 construct: made in house
T1 sequence (Q02936 1-471): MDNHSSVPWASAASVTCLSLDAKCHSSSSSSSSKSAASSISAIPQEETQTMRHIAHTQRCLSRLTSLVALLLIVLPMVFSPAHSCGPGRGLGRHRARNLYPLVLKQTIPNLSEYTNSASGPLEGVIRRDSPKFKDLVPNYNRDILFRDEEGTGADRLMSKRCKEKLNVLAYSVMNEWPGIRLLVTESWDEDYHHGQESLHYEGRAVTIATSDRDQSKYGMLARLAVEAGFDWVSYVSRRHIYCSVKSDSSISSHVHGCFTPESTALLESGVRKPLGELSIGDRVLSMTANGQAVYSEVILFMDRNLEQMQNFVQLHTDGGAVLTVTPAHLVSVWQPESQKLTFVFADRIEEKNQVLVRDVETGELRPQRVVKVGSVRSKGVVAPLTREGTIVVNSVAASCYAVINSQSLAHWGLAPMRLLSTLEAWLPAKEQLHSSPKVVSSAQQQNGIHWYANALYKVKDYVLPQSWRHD

[8] = COS7 cells labelled with [3H]-mevalonic acid, 24 hr, jervine (b16 and b71 print 28=|M), versus ethanol control

| Structure (SMILES) | induction of HPE-like malformations [1] | sterol precursor abnormally accumulated [2] | inhibition of 7-dehydrocholesterol reductase [3] | congenital craniofacial malformations in newborn lambs [6] | further results |
| --- | --- | --- | --- | --- | --- |
| O=C(O)c1ccc(CCN2CCN(C/C=C/c3ccc(Cl)cc3)CC2)cc1 [BM 15.766] | HPE-like malformations can be induced | 7-dehydrocholesterol | inhibited |  | teratogenesis, resulting defects [4]: severe holoprosencephaly |
| CCN(CC)CCOc1ccc(C(O)(Cc2ccc(Cl)cc2)c2ccc(C)cc2)cc1 (stereo not drawn) [Triparanol] | HPE-like malformations can be induced | desmosterol |  |  |  |
| CC1=C2C(=O)[C@H]3[C@@H](CC=C4C[C@@H](O)CC[C@@]43C)[C@@H]2CC[C@]12O[C@@H]1C[C@H](C)CN[C@H]1[C@H]2C [jervine] |  |  |  | responsible | another radiolabelled sterol, tentatively identified as zymosterol [5, 8]: found to accumulate; also recorded: increased levels; radiolabelled cholesterol levels [5, 8]: reduced levels; inhibition of cholesterol biosynthesis in cultured cells ([5]; COS7 cells, jervine at these concentrations): inhibits cholesterol biosynthesis |
| CC(C)CCC[C@@H](C)[C@H]1CC[C@H]2[C@@H]3CC=C4C[C@@H](O)CC[C@]4(C)[C@H]3CC[C@]12C [Cholesterol, cholesterol] |  |  |  |  | effect on in vitro autoprocessing reaction [7]: stimulates |
| CC1=C2C[C@H]3[C@@H](CC=C4C[C@@H](O)CC[C@@]43C)[C@@H]2CC[C@]12O[C@@H]1C[C@H](C)CN[C@H]1[C@H]2C [cyclopamine] |  |  |  | responsible |  |
| Cl.Cl.Clc1ccccc1CNCC1CCC(CNCc2ccccc2Cl)CC1 (stereo not drawn) [AY 9944R] | HPE-like malformations can be induced | 7-dehydrocholesterol | inhibited |  |  |
